This is an account of results in patent US20110263539A1, “SHIP 1 MODULATOR COMPOUNDS” (THE UNIVERSITY OF BRITISH COLUMBIA, priority 2006, published 2011).

Series [1] concerns 100 protein kinase and phosphatase targets. The experiment in a line: Profiling on 100 protein kinase and phosphatase targets. Format: biochemical. The conditions noted are these: 2 μM final concentration. Here is the method:
Compound profiling activity was undertaken using 100 protein kinase and phosphatase targets by SignalChem (Richmond, BC, Canada. www.signalchem.com) against compound Compound 100 (2 μM final concentration). Protein kinase assays were performed in the presence of 50 μM ATP at 30° C. for 15 min. Protein phosphatase activities were determined using pNPP as substrate and were also performed at 37° C. for 15 min. The activity of the enzymes in the presence of Compound 100 was compared to that in the vehicle control and expressed as a % change in activity relative to that observed in the vehicle control. Changes in activity of <25% were not considered significant. Enzymes affected by Compound 100 are plotted in an expanded graph in FIG. 12B.

A short description of series [2]: Initial toxicology studies. Format: in vivo. To be noted: data not shown. The text has this:
A novel paradigm for inhibiting PI3K signaling through activation of the phosphatases that negatively regulate this pathway is provided. SHIP is a particularly good target for immune/hematopoietic disorders because of its restricted expression to hematopoietic cells. Because the relative activity of phosphatases present in a cell will influence the efficacy of kinase inhibitors, as discussed by Knight and Shokat, SHIP agonists may also be used to potentiate the activation of PI3K inhibitors and promote tissue targeting of PI3K inhibitors to the ematopoietic/immune cell compartment.

Series [3] concerns luciferase expressing OPM2 cells. Nature of the series: In vivo Multiple Myeloma (MM) assay (Assay 8). Further details: species or system Mice. To be noted: 50 mg/kg every 3 days, subcutaneous oil depot. The protocol:
Assay 8) In vivo Multiple Myeloma (MM) assay. Mice were inoculated with at two sites each with 3×10^6 luciferase expressing OPM2 cells suspended in 50 μL of growth medium and 50 μL of Matrigel basement membrane matrix (Becton Dickenson; Bedford, Mass.). Tumors were injected subcutaneously in the upper and lower flanks of the mice and allowed to establish for 2 weeks. After 2 weeks, a test compound or control vehicle was administered in a subcutaneous oil depot at a dose of 50 mg/kg every 3 days.
Tumors were measured using bioluminescence imaging on the Xenogen IVIS 200. Mice received intra-peritoneal injections of 200 μL of D-luciferin at 3.75 mg/mL in sterile PBS. Mice were then anesthetized with isofluorane and imaged 15 minutes post-injection of luciferin. Quantification of tumor size was performed using the Living Image™ software.
MM Xenograft murine model. Mice were inoculated with at two sites each with 3×10^6 luciferase expressing OPM2 cells suspended in 50 μL of growth medium and 50 μL of Matrigel basement membrane matrix (Becton Dickenson; Bedford, Mass.). Tumors were injected subcutaneously in the upper and lower flanks of the mice and allowed to establish for 2 weeks. […]
Tumors were measured using bioluminescence imaging on the Xenogen IVIS 200. […] Quantification of tumor size was performed using the Living Image™ software. […]

The subject of series [4] is J774.1a macrophage cells. Nature of the series: Macrophage TNF-α NO assay (Assay 3). Also: key: a ‘+’ indicates a positive result for desired activity; a ‘−’ indicates a negative result for desired activity. Format: cell-based. The conditions noted are these: 10 μg/ml test compound, LPS, 24 hr, Griess reagent. The protocol: Assay 3) Macrophage TNF-α NO assay. J774.1a macrophage cells were treated with 10 μg/ml of test compound dissolved in solvent for 40 minutes prior to the addition of LPS. Culture supernatants were collected after 24 hr. for determination of NO concentration using the Griess reagent.
In general terms: The Griess reaction detects nitrite, a stable product of nitric oxide.

Series [5] concerns J774.1a macrophage cells. The experiment in a line: Macrophage TNF-α production (Assay 2). Also: key: a ‘+’ indicates a positive result for desired activity; a ‘−’ indicates a negative result for desired activity. Format: cell-based. The conditions noted are these: 10 μg/mL test compound, 100 ng/mL LPS, ELISA. Here is the method: Assay 2) Macrophage TNF-α production. J774.1a macrophage cells were treated with 10 μg/mL of test compound dissolved in solvent (e.g. cyclodextran) for 40 minutes prior to the addition of 100 ng/mL LPS. Culture supernatants were collected after 2 hr and 5 hr for TNF-α determination by ELISA.
In general terms: An ELISA detects its analyte on a solid surface through an enzyme-linked reagent.

In series [6] the test system is SHIP C2 domain. The experiment in a line: Scintillation proximity assay, C2 domain. To be noted: [3H]-Compound 100, SPA beads. Format: binding. The protocol: Compound 100 was radiolabelled with tritium by GE Healthcare (Piscataway, N.J.) to a specific activity of 42 Ci/mmole. Copper chelate (His-Tag) YSi SPA Scintillation Beads (GE Healthcare, Piscataway, N.J.) were diluted in 0.25% BSA/TBS to 1.5 mg/mL and recombinant, His6-tagged protein added at the indicated concentrations: wild-type (1 μM), ΔC2 SHIP enzyme (1 pM) or C2 domain (10 nM). Protein was allowed to bind 1 h at 23° C., and 250 μg of beads were aliquoted per well of a 96-well plate. 5 μCi of [^3H]-Compound 100 was added per well, the plate gently agitated for 30 min and the amount of bead associated radioactivity quantified by counting in a Wallac BetaPlate plate scintillation counter.
Isolated recombinant, His6-tagged C2 domain was expressed and its PI-3,4-P2 binding ability was determined using protein lipid overlay assays. Purified C2 domain was incubated with membrane strips spotted with PI-3,4-P2 and bound protein detected using an anti-His6 antibody. As shown in FIG. 11C the C2 domain bound PI-3,4-P2 and this binding was inhibited by Compound 100, consistent with both Compound 100 and PI-3,4-P2 interacting with the C2 domain at a common binding site.
Background: SPA uses beads or plates that emit light when radiolabelled molecules are held near them.

For series [7], the system named is SHIP C2 domain. The experiment in a line: Protein lipid overlay assay. To be noted: 4 μM Compound 100. Format: binding. The protocol:
Protein lipid overlay (PLO) assays were performed essentially as described with minor modifications. Lyophilized phosphatidylinositol-3,4-bisphosphate diC16 (PIP2, Echelon Biosciences, Salt Lake City, Utah) was reconstituted in a 2:1.8 solution of methanol and water. PVDF membranes (Millipore, Missisauga, Ont) were initially wetted in methanol for 1 minute, and washed 3×5 min with water, and gently agitated in TBST buffer (20 mM Tris pH 7.5, 0.15 M NaCl (TBS) with 0.05% Tween 20) at 23° C. overnight. Treated membranes were air-dried and dilutions of reconstituted lipids were spotted in 1 μl aliquots to give the indicated amount of PIP2 per membrane spot. Membranes were dried completely and blocked with blocking buffer (3% BSA in TBS with 0.05% NaN3) for 1 h at 23° C. Purified, recombinant C2 domain was diluted into blocking buffer (5 μM final) and treated with 4 μM Compound 100 or EtOH control for 30 min at 23° C. prior to overnight incubation with the PIP2 spotted membranes. […] After washing, bound proteins were detected and quantified on a Li-Cor Odyssey scanner (Lincoln, Nebr.).
Isolated recombinant, His6-tagged C2 domain was expressed and its PI-3,4-P2 binding ability was determined using protein lipid overlay assays. Purified C2 domain was incubated with membrane strips spotted with PI-3,4-P2 and bound protein detected using an anti-His6 antibody. […]

Regarding `Cc1cc(O)cc2c1[C@]1(C)CCC3C(C)(C)CCC[C@]3(C)[C@H]1C2` (stereo partly shown) [Compound 100], in series [1], the off-target effects result is reported as “minimal off-target effects”. Further, the “peripheral blood cell counts or bone marrow progenitor numbers” value in series [2] is on record as “do not significantly affect”. Besides, in series [3], the “Assay Number 8: In vivo Multiple Myeloma (MM) assay” value is on record as “+”. The “Assay Number 3: Macrophage NO” value in series [4] is given as “+”. In addition, the “Assay Number 2: Macrophage TNF-α production” value in series [5] is given as “+”. For the same molecule, in series [6], the “binding to C2 domain” value is “directly bind the C2 domain”. The “binding of C2 domain to PI-3,4-P2” value in series [7] is “inhibited”.
